The text below walks through data of patent US12403129B2, “Isotope-enriched 3-amino-1-propanesulfonic acid derivatives for the treatment of cerebrovascular disease” (RISEN (SUZHOU) PHARMA TECH CO., LTD., priority 2021, dated 2025).

“Also recorded” adds a separate entry of the source.

Data set [1] deals with Bcl-2. Put plainly: Bcl-2 expression by Western blotting, ischemia-reperfusion dementia mice. Format: in vivo, C57BL/6J mice. As to the method: 140 healthy C57BL/6J mice, including 70 males and 70 females, were used. 1% Pentobarbital Sodium (50 mg/kg) was injected intraperitoneally to anesthetize the mice. The back position was fixed, the neck hair was removed, and the common carotid arteries were cut along the middle of the neck after iodophor disinfection. The common carotid arteries were separated, clamped with a noninvasive artery clamp for 15 minutes, released for 10 minutes, and then clamped for 10 minutes. Penicillin powder was then applied to suture muscles and skin. The sham operation group was not clamped, and other operations were the same as for the model group. […]
The main pathological index included: investigation of the improvement of learning and memory impairment by the compound in the pathogenic model of cerebral ischemia-reperfusion using behavioral experimental methods such as Y maze, new object discrimination, spontaneous activity, Morris water maze and passive avoidance experiment (dark avoidance); investigation of the ultrastructure of nerve cells (including nucleus, mitochondria and synapse) by HE staining and immunofluorescence; detection of expression of synaptic associated proteins SYP and PSD95 by Western blotting; and detection of expression of apoptosis-related proteins Bcl-2 and Bax by Western blotting. […] Experimental results were analyzed statistically using IBM SPSS 21.0 software. […]

Data set [2] relates to PSD95. Put plainly: PSD95 expression in hippocampus by Western blotting, ischemia-reperfusion dementia mice. The data set is classed as in vivo, C57BL/6J mice. As to the method:
Compound 4, 85 mg/kg, bid; D. Compound 4, 170 mg/kg, bid; E. Compound 4, 340 mg/kg, bid; F. Donepezil, 1.3 mg/kg. Compared with sham operation group: ### P<0.001; Compared with the model group: ** P<0.01, *** P<0.001.
140 healthy C57BL/6J mice, including 70 males and 70 females, were used. 1% Pentobarbital Sodium (50 mg/kg) was injected intraperitoneally to anesthetize the mice. The back position was fixed, the neck hair was removed, and the common carotid arteries were cut along the middle of the neck after iodophor disinfection. The common carotid arteries were separated, clamped with a noninvasive artery clamp for 15 minutes, released for 10 minutes, and then clamped for 10 minutes. Penicillin powder was then applied to suture muscles and skin. The sham operation group was not clamped, and other operations were the same as for the model group. […] Mice were divided into 6 groups: sham operation group, model group, positive control group (donepezil) and test compound group (different doses). Test compounds were administered by gavage to each group on the next day of modeling. The compound group was given compounds once a day in the morning and evening, and the volume of each gavage was 10 ml/kg. […]
(In western blotting, separated proteins are transferred to a membrane and probed.)

For data set [3], the system named is ATP. In words: ATP content of hippocampus and cortex, multiple cerebral infarction dementia rats. Format: in vivo, SD rats. The settings on record: compared with the model group, p<0.05. As to the method:
135 SPF grade SD rats (75 females, 60 males, weighing 200-220 g) were used. Anesthesia was performed by intraperitoneal injection of 3.5% chloral hydrate (350 mg/kg). After dorsal fixation, neck hair removal and iodophor disinfection, animals were cut along the middle of the neck to separate the right common carotid artery, external carotid artery and internal carotid artery. […]
The main pathological indexes included investigation of the improvement of learning and memory impairment in the dementia model animal by test compound using behavioral experimental methods such as Y maze, new object discrimination, Morris water maze and passive avoidance test (dark avoidance); investigation of the protective effect of test compound on mitochondria by detecting the content of ATP in hippocampus and cortex of rats; and investigation of levels of oxidative stress in the rat brain by measuring activity of superoxide dismutase (SOD, which is an oxygen free-radical scavenger), glutathione peroxidase (GSH-Px, which scavenges lipid peroxides induced by reactive oxygen species and —OH), nitric oxide synthase (NOS), malondialdehyde (MDA), and nitric oxide (NO). […] Expression of synaptic associated proteins SYP and PSD95 was detected by Western blotting. […] Experimental results were statistically analyzed using IBM SPSS 21.0 software. […]

Data set [4] deals with nitric oxide synthase (NOS). In words: NOS activity in cerebral cortex, multiple cerebral infarction dementia rats. Format: in vivo, SD rats. The settings on record: compared with the model group, p<0.05. As to the method: Compound 4, 120 mg/kg, bid; D. Compound 4, 240 mg/kg, bid; E. Compound 4, 480 mg/kg, bid; F. Donepezil, 0.9 mg/kg. Compared with sham operation group: ### P<0.001; Compared with the model group: ** P<0.01, *** P<0.001.
135 SPF grade SD rats (75 females, 60 males, weighing 200-220 g) were used. Anesthesia was performed by intraperitoneal injection of 3.5% chloral hydrate (350 mg/kg). After dorsal fixation, neck hair removal and iodophor disinfection, animals were cut along the middle of the neck to separate the right common carotid artery, external carotid artery and internal carotid artery. The common carotid artery was temporarily clamped by the artery clamp, the left external carotid artery was retrogradely punctured to the beginning of the left internal carotid artery with a pediatric scalp needle, and then 0.4 ml of embolic normal saline suspension was slowly injected with a syringe (the preparation of embolic normal saline suspension was as follows: blood was collected from the abdominal aorta of the same rat, dried naturally in a 37° C. incubator, and prepared for 80-200 minutes to form a blood clot; during application, 0.3 ml normal saline was added to every 10 mg blood clot), and the common carotid artery clamp was opened at the same time, then the external carotid artery was ligated and the skin was sutured. […]

For data set [5] the following is noted: cited from earlier work.
The mark [6] stands for this setting: Test group vs model group, n = 15-17, dose not stated.
The mark [7] stands for this setting: 2-h time point, oral, 0.72 mmol/kg.

For the molecule `[2H]C([2H])(CCS(=O)(=O)O)NC(=O)[C@@H](N)C(C)C` [compound 4, 3-((L-valyl)amino)-3,3-dideuterium-1-propanesulfonic Acid], the “Bcl-2 expression, p compared with model group” value in data set [1] (setting [6]) is “p < 0.01”. For the same molecule, the “expression of Bcl-2” value in data set [1] (compared with the model group) is “increased”. Further, the “PSD95 expression, p compared with model group” value in data set [2] (setting [6]) is “p < 0.001”. Also, the “expression of PSD95” value in data set [2] (compared with the model group) is reported as “increased”. Also, the “ATP content of hippocampus and cerebral cortex” value in data set [3] was “significantly increased”. For the same molecule, the NOS activity entry in data set [4] is given as “significantly reduced”. For the same molecule, in data set [5] (setting [7]), the “concentration of metabolite (2-carboxy-1-ethanesulfonic acid) in plasma compared to 3APS (of natural abundance)” value is recorded as “much lower” and the “plasma drug concentration compared to 3APS (of natural abundance)” value is given as “higher”. In addition, the “plasma drug exposure compared to 3APS (of natural abundance)” value in data set [5] (mole-equivalent oral dose (0.72 mmol/kg), mouse plasma) was “improved plasma drug exposure significantly; also recorded: even greater improvement of drug exposure”. In addition, the “increase of Cmax for the drug concentration” value in data set [5] (mole-equivalent oral dose, mouse plasma, versus 3APS of natural abundance) is recorded as ~2 fold. The “drug metabolism / metabolic profile compared to 3APS” value in data set [5] (mole-equivalent oral dose, mouse) was “delayed drug metabolism”. In data set [5] (oral, mouse plasma), the “conversion of prodrug to compound 1 in the subject” value is recorded as “converted easily to compound 1”.
